{
  "source": "patent US20250376461A1",
  "about": "“INDAZOLE DERIVATIVES FOR TREATING TRPM3-MEDIATED DISORDERS” (Katholieke Universiteit Leuven, priority 2022, published 2025)",
  "data": [
    {"target": "T1, mouse TRPM3α2 (mTRPM3) ion channel (Mus musculus, UniProt J9SQF3)", "T1 construct": "expressed in transfected cells; host or cells: flip-in HEK293", "T1 sequence (J9SQF3 1-1709 isoform J9SQF3-12)": "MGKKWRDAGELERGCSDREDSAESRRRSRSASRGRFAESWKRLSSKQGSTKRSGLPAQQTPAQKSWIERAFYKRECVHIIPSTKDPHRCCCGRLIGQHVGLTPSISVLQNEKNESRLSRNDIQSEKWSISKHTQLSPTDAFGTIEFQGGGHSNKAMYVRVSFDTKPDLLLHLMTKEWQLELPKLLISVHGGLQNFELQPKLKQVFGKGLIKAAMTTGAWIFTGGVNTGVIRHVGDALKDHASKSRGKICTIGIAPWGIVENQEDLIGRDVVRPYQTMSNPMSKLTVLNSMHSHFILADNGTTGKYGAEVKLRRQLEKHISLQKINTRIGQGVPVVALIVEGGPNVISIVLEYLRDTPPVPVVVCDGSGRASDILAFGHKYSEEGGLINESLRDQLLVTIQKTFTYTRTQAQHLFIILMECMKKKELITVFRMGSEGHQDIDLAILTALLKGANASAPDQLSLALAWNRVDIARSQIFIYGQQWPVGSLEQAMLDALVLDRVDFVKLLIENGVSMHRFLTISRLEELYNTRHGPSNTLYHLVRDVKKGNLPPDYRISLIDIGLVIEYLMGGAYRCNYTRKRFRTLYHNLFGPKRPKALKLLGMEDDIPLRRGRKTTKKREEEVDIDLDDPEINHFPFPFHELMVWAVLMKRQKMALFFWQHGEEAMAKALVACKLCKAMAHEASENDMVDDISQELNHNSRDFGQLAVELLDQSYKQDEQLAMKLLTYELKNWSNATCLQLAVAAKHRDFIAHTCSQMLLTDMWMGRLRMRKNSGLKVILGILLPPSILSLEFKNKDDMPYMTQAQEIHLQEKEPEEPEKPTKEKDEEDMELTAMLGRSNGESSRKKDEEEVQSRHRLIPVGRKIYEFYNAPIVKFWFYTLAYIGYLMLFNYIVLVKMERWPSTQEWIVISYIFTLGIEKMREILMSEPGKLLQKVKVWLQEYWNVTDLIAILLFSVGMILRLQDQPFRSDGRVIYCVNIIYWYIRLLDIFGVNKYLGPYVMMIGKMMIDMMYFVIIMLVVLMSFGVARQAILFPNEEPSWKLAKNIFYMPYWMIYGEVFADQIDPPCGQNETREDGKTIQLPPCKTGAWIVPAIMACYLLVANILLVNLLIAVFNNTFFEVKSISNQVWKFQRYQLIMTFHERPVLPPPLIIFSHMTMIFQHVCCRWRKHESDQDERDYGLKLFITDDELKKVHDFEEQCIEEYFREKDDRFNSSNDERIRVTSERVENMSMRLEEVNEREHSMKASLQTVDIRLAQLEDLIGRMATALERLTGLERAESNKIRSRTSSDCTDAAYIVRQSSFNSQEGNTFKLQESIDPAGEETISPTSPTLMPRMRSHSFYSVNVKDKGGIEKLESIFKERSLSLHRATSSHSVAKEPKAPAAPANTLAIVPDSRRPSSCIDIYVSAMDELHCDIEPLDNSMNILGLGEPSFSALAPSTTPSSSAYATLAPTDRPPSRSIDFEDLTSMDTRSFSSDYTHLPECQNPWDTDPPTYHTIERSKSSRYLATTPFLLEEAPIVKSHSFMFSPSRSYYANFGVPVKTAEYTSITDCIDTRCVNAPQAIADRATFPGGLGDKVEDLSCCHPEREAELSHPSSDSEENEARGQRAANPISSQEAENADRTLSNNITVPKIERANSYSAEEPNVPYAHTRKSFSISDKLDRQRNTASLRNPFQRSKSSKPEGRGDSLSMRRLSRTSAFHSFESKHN", "experiment": "TRPM3 ion channel driven Ca2+ uptake, Fluo-4 AM assay, mTRPM3alpha2 overexpressing flip-in HEK293 cells stimulated with pregnenolone sulfate (50 μM)", "type": "cell-based", "settings": "mTRPM3 overexpressing HEK293 cells stimulated with pregnenolone sulfate (50 μM), activity ranges A, B, C", "summary_of_the_method": "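Flip-in HEK293 cells overexpressing mTRPM3α2, loaded with Fluo-4 AM, added at ±2000 cells/well to plates holding compound plus 50 μM pregnenolone sulfate in Ca2+-containing Krebs buffer. Fluorescence (ex 485/em 535 nm) read immediately. Percent inhibition normalised between vehicle and positive-control inhibitor; IC50 derived.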", "units": {"IC50": "µM"}, "values": [
      {"smiles": "Cn1nc2ccc(OCc3ccccn3)cc2c1C(=O)NC(C)(CO)CC(F)(F)F", "note": "(single isomer, unassigned) [Cpd 255 - En2, 2-methyl-5-[(pyridin-2-yl)methoxy]-N-(4,4,4-trifluoro-1-hydroxy-2-methylbutan-2-yl)-2H-indazole-3-carboxamide]", "IC50": "1 to 20"},
      {"smiles": "COCC(C)(CO)NC(=O)c1c2cc(OCc3ccccn3)ccc2nn1C", "note": "(single isomer, unassigned) [Cpd 258 - En1]", "IC50": "1 to 20"},
      {"smiles": "COCC(C)(CO)NC(=O)c1c2cc(OCc3ccccn3)ccc2nn1C", "note": "(single isomer, unassigned) [Cpd 258 - En2]", "IC50": "1 to 20"},
      {"smiles": "Cc1ncsc1COc1ccc2nn(C)c(C(=O)NC3(CO)CCOCC3)c2c1", "note": "[Cpd 001, N-[4-(hydroxymethyl)oxan-4-yl]-2-methyl-5-[(4-methyl-1,3-thiazol-5-yl)methoxy]-2H-indazole-3-carboxamide]", "IC50": "1 to 20"},
      {"smiles": "Cn1nc2ccc(OCc3ccccc3)cc2c1C(=O)NC1(CO)CC1", "note": "[Cpd 004, 5-(benzyloxy)-N-[1-(hydroxymethyl)cyclopropyl]-2-methyl-2H-indazole-3-carboxamide]", "IC50": "1 to 20"},
      {"smiles": "Cc1ncsc1COc1ccc2nn(C)c(C(=O)NC(C)(C)CO)c2c1", "note": "[Cpd 005, N-(1-hydroxy-2-methylpropan-2-yl)-2-methyl-5-[(4-methyl-1,3-thiazol-5-yl)methoxy]-2H-indazole-3-carboxamide]", "IC50": "1 to 20"},
      {"smiles": "Cn1ccc(NC(=O)c2c3cc(OCc4ccnn4C)ccc3nn2C)n1", "note": "[Cpd 006, 2-methyl-N-(1-methyl-1H-pyrazol-3-yl)-5-[(1-methyl-1H-pyrazol-5-yl)methoxy]-2H-indazole-3-carboxamide]", "IC50": "> 20"},
      {"smiles": "Cn1nc2ccc(OCc3cccnc3C(F)(F)F)cc2c1C(=O)NC1CCNC1=O", "note": "(centres unmarked) [Cpd 007, 2-methyl-N-(2-oxopyrrolidin-3-yl)-5-{[2-(trifluoromethyl)pyridin-3-yl]methoxy}-2H-indazole-3-carboxamide]", "IC50": "< 1"},
      {"smiles": "Cn1nc2ccc(OCc3ccccc3)cc2c1C(=O)NC1CCNC1=O", "note": "(centres unmarked) [Cpd 008, 5-(benzyloxy)-2-methyl-N-(2-oxopyrrolidin-3-yl)-2H-indazole-3-carboxamide]", "IC50": "1 to 20"},
      {"smiles": "Cn1nccc1COc1ccc2nn(C)c(C(=O)NC(C)(CO)CO)c2c1", "note": "[Cpd 009, N-(1,3-dihydroxy-2-methylpropan-2-yl)-2-methyl-5-[(1-methyl-1H-pyrazol-5-yl)methoxy]-2H-indazole-3-carboxamide]", "IC50": "1 to 20"},
      {"smiles": "Cn1nccc1COc1ccc2nn(C)c(C(=O)NCC(C)(C)CO)c2c1", "note": "[Cpd 012, N-(3-hydroxy-2,2-dimethylpropyl)-2-methyl-5-[(1-methyl-1H-pyrazol-5-yl)methoxy]-2H-indazole-3-carboxamide]", "IC50": "1 to 20"},
      {"smiles": "Cn1ccc(NC(=O)c2c3cc(OCc4cccnc4C(F)(F)F)ccc3nn2C)n1", "note": "[Cpd 013, 2-methyl-N-(1-methyl-1H-pyrazol-3-yl)-5-{[2-(trifluoromethyl)pyridin-3-yl]methoxy}-2H-indazole-3-carboxamide]", "IC50": "1 to 20"},
      {"smiles": "Cn1ccc(NC(=O)c2c3cc(OCc4ccccc4)ccc3nn2C)n1", "note": "[Cpd 014, 5-(benzyloxy)-2-methyl-N-(1-methyl-1H-pyrazol-3-yl)-2H-indazole-3-carboxamide]", "IC50": "1 to 20"},
      {"smiles": "Cn1nccc1COc1ccc2nn(C)c(C(=O)NC(C)(C)CO)c2c1", "note": "[Cpd 015, N-(1-hydroxy-2-methylpropan-2-yl)-2-methyl-5-[(1-methyl-1H-pyrazol-5-yl)methoxy]-2H-indazole-3-carboxamide]", "IC50": "1 to 20"},
      {"smiles": "Cn1nc2ccc(OCc3cccnc3C(F)(F)F)cc2c1C(=O)NC(C)(CO)CO", "note": "[Cpd 016, N-(1,3-dihydroxy-2-methylpropan-2-yl)-2-methyl-5-{[2-(trifluoromethyl)pyridin-3-yl]methoxy}-2H-indazole-3-carboxamide]", "IC50": "< 1"},
      {"smiles": "Cn1nc2ccc(OCc3ccccc3)cc2c1C(=O)NC(C)(CO)CO", "note": "[Cpd 017, 5-(benzyloxy)-N-(1,3-dihydroxy-2-methylpropan-2-yl)-2-methyl-2H-indazole-3-carboxamide]", "IC50": "1 to 20"},
      {"smiles": "Cc1ncsc1COc1ccc2nn(C)c(C(=O)Nc3ccn(C)n3)c2c1", "note": "[Cpd 018, 2-methyl-5-[(4-methyl-1,3-thiazol-5-yl)methoxy]-N-(1-methyl-1H-pyrazol-3-yl)-2H-indazole-3-carboxamide]", "IC50": "1 to 20"},
      {"smiles": "Cn1nc2ccc(OCc3cccnc3C(F)(F)F)cc2c1C(=O)NCC(C)(C)CO", "note": "[Cpd 019, N-(3-hydroxy-2,2-dimethylpropyl)-2-methyl-5-{[2-(trifluoromethyl)pyridin-3-yl]methoxy}-2H-indazole-3-carboxamide]", "IC50": "> 20"},
      {"smiles": "Cn1nc2ccc(OCc3ccccc3)cc2c1C(=O)NCC(C)(C)CO", "note": "[Cpd 020, 5-(benzyloxy)-N-(3-hydroxy-2,2-dimethylpropyl)-2-methyl-2H-indazole-3-carboxamide]", "IC50": "1 to 20"},
      {"smiles": "Cc1ncsc1COc1ccc2nn(C)c(C(=O)NC(C)(CO)CO)c2c1", "note": "[Cpd 021, N-(1,3-dihydroxy-2-methylpropan-2-yl)-2-methyl-5-[(4-methyl-1,3-thiazol-5-yl)methoxy]-2H-indazole-3-carboxamide]", "IC50": "< 1"},
      {"smiles": "Cn1nc2ccc(OCc3cccnc3C(F)(F)F)cc2c1C(=O)NC1(CO)CC1", "note": "[Cpd 022, N-[1-(hydroxymethyl)cyclopropyl]-2-methyl-5-{[2-(trifluoromethyl)pyridin-3-yl]methoxy}-2H-indazole-3-carboxamide]", "IC50": "1 to 20"},
      {"smiles": "Cn1nc2ccc(OCc3ccccc3)cc2c1C(=O)NC(C)(C)CO", "note": "[Cpd 023, 5-(benzyloxy)-N-(1-hydroxy-2-methylpropan-2-yl)-2-methyl-2H-indazole-3-carboxamide]", "IC50": "1 to 20"},
      {"smiles": "Cc1ncsc1COc1ccc2nn(C)c(C(=O)NCC(C)(C)CO)c2c1", "note": "[Cpd 024, N-(3-hydroxy-2,2-dimethylpropyl)-2-methyl-5-[(4-methyl-1,3-thiazol-5-yl)methoxy]-2H-indazole-3-carboxamide]", "IC50": "1 to 20"},
      {"smiles": "Cn1nc2ccc(OCc3ccccc3)cc2c1C(=O)NCc1cccc(O)n1", "note": "[Cpd 025, 5-(benzyloxy)-N-[(6-hydroxypyridin-2-yl)methyl]-2-methyl-2H-indazole-3-carboxamide]", "IC50": "< 1"},
      {"smiles": "Cn1nc2ccc(OCc3cccnc3C(F)(F)F)cc2c1C(=O)NC(CO)C(N)=O", "note": "(centres unmarked) [Cpd 026, 3-hydroxy-2-[(2-methyl-5-{[2-(trifluoromethyl)pyridin-3-yl]methoxy}-2H-indazol-3-yl)formamido]propanamide]", "IC50": "< 1"},
      {"smiles": "Cn1nccc1COc1ccc2nn(C)c(C(=O)NC(CO)C(N)=O)c2c1", "note": "(centres unmarked) [Cpd 027, 3-hydroxy-2-({2-methyl-5-[(1-methyl-1H-pyrazol-5-yl)methoxy]-2H-indazol-3-yl}formamido)propanamide]", "IC50": "1 to 20"},
      {"smiles": "Cn1nc2ccc(OCc3cccnc3C(F)(F)F)cc2c1C(=O)NC1(CO)CCC1", "note": "[Cpd 028, N-[1-(hydroxymethyl)cyclobutyl]-2-methyl-5-{[2-(trifluoromethyl)pyridin-3-yl]methoxy}-2H-indazole-3-carboxamide]", "IC50": "1 to 20"},
      {"smiles": "Cn1nc2ccc(OCc3cccnc3C(F)(F)F)cc2c1C(=O)NC1(CO)CCOCC1", "note": "[Cpd 029, N-[4-(hydroxymethyl)oxan-4-yl]-2-methyl-5-{[2-(trifluoromethyl)pyridin-3-yl]methoxy}-2H-indazole-3-carboxamide]", "IC50": "1 to 20"},
      {"smiles": "Cn1nccc1COc1ccc2nn(C)c(C(=O)NC3(C(N)=O)COC3)c2c1", "note": "[Cpd 030, N-(3-carbamoyloxetan-3-yl)-2-methyl-5-[(1-methyl-1H-pyrazol-5-yl)methoxy]-2H-indazole-3-carboxamide]", "IC50": "> 20"},
      {"smiles": "Cc1ncsc1COc1ccc2nn(C)c(C(=O)NC3(C(N)=O)COC3)c2c1", "note": "[Cpd 031, N-(3-carbamoyloxetan-3-yl)-2-methyl-5-[(4-methyl-1,3-thiazol-5-yl)methoxy]-2H-indazole-3-carboxamide]", "IC50": "1 to 20"},
      {"smiles": "Cc1ncsc1COc1ccc2nn(C)c(C(=O)NC3CN(C)CC3(F)F)c2c1", "note": "(centres unmarked) [Cpd 032, N-(4,4-difluoro-1-methylpyrrolidin-3-yl)-2-methyl-5-[(4-methyl-1,3-thiazol-5-yl)methoxy]-2H-indazole-3-carboxamide]", "IC50": "1 to 20"},
      {"smiles": "Cn1nc2ccc(OCc3ccccc3)cc2c1C(=O)NC1(C(N)=O)CCC1", "note": "[Cpd 033, 5-(benzyloxy)-N-(1-carbamoylcyclobutyl)-2-methyl-2H-indazole-3-carboxamide]", "IC50": "1 to 20"},
      {"smiles": "CN1CC(NC(=O)c2c3cc(OCc4ccccc4)ccc3nn2C)C(F)(F)C1", "note": "(centres unmarked) [Cpd 034, 5-(benzyloxy)-N-(4,4-difluoro-1-methylpyrrolidin-3-yl)-2-methyl-2H-indazole-3-carboxamide]", "IC50": "1 to 20"},
      {"smiles": "Cn1nccc1COc1ccc2nn(C)c(C(=O)NCc3cccc(O)n3)c2c1", "note": "[Cpd 035, N-[(6-hydroxypyridin-2-yl)methyl]-2-methyl-5-[(1-methyl-1H-pyrazol-5-yl)methoxy]-2H-indazole-3-carboxamide]", "IC50": "1 to 20"},
      {"smiles": "Cn1nc2ccc(OCc3cccnc3C(F)(F)F)cc2c1C(=O)NCc1cccc(O)n1", "note": "[Cpd 036, N-[(6-hydroxypyridin-2-yl)methyl]-2-methyl-5-{[2-(trifluoromethyl)pyridin-3-yl]methoxy}-2H-indazole-3-carboxamide]", "IC50": "1 to 20"},
      {"smiles": "Cc1ncsc1COc1ccc2nn(C)c(C(=O)NC3CCN(CCO)C3=O)c2c1", "note": "(centres unmarked) [Cpd 037, N-[1-(2-hydroxyethyl)-2-oxopyrrolidin-3-yl]-2-methyl-5-[(4-methyl-1,3-thiazol-5-yl)methoxy]-2H-indazole-3-carboxamide]", "IC50": "> 20"},
      {"smiles": "Cn1nc2ccc(OCc3ccccc3)cc2c1C(=O)NC1CCN(CCO)C1=O", "note": "(centres unmarked) [Cpd 038, 5-(benzyloxy)-N-[1-(2-hydroxyethyl)-2-oxopyrrolidin-3-yl]-2-methyl-2H-indazole-3-carboxamide]", "IC50": "1 to 20"},
      {"smiles": "Cn1nccc1COc1ccc2nn(C)c(C(=O)NC3CCN(CCO)C3=O)c2c1", "note": "(centres unmarked) [Cpd 039, N-[1-(2-hydroxyethyl)-2-oxopyrrolidin-3-yl]-2-methyl-5-[(1-methyl-1H-pyrazol-5-yl)methoxy]-2H-indazole-3-carboxamide]", "IC50": "> 20"}
    ]}
  ]
}
